Reference: patent US20110257220A1, “3,11 b-cis-Dihydrotetrabenazine for the Treatment of Schizophrenia and Other Psychoses” (CAMBRIDGE LABORATORIES (IRELAND) LIMITED, priority 2005, published 2011)
pIC50: −log10 of the molar value. Entries after “also recorded” stand apart in the source; their conditions may differ.

Tests used:
[1] = molecular target: T1, α2c Adrenergic receptor (Homo sapiens, UniProt P18825); experiment: α2c Adrenergic receptor radioligand binding ([3H] MK-912); conditions: 10 μM solution; for inhibition at 10 µM: read-out: Percentage Inhibition of Specific Binding, α2c receptor
T1 construct: expressed in transfected cells; host or cells: insect Sf9 cells
T1 sequence (P18825 1-462): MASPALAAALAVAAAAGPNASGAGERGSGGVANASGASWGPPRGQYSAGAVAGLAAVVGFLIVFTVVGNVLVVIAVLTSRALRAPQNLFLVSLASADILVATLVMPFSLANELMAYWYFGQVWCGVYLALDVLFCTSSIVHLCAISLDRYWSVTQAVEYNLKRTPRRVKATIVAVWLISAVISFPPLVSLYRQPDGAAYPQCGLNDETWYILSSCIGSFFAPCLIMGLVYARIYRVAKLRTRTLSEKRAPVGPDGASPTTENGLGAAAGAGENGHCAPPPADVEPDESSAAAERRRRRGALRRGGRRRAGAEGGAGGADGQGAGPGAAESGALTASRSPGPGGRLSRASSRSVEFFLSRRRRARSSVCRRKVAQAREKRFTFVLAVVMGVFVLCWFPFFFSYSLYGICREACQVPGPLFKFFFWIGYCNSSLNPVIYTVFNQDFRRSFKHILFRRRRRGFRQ
Method: (§1) The four dihydrotetrabenazine isomers A, B, C and D were subjected to specific binding assays to test their ability to bind to the receptors and transporter proteins described below. The results are set out in Table 5
(k) α2, Adrenergic Receptor
α2c Adrenergic receptor binding activity was determined using the method of Uhlen et al., J. Pharmacol. Exp. Ther. (1994), 271:1558-1565, and the following conditions: • Source: Human recombinant insect Sf9 cells • Ligand: 1 nM [^3H]

[2] = system: female hooded-Lister rats; experiment: Novel object recognition (NOR) task, sub-chronic PCP-induced cognitive deficit; assay type: in vivo, rat
From the text: Certain pre-clinical tests allow the observation of relatively subtle cognitive deficits in the rat that resemble cognitive symptoms in subjects with schizophrenia. The cognitive deficits observed are seen in behaviours such as working memory deficits which may be measured by recognition tasks such as the novel object recognition (NOR) paradigm. A recognition memory task allows the comparison between presented stimuli and previously stored information. Ennaceur & Delacour, Behav. Brain Res. 31: 47-59 (1988) described the NOR test in rats which was based on the differential exploration of familiar and new objects. The NOR test is a non-rewarded, ethologically relevant paradigm based on the spontaneous exploratory behaviour of rats which measures working memory. Each session consists of two trials. In the first trial, the rats are exposed to two identical objects in an open field. During the second trial, rats are exposed to two dissimilar objects, one familiar object from the first trial and one new object. Object recognition in rats can be measured as the difference in time spent exploring the familiar and the new object.
The abovementioned rodent model was used to assess the effects of the Isomer A on sub-chronic PCP-induced deficits in working memory using the novel object recognition (NOR) paradigm. The working hypothesis was that both acute and sub-chronic treatment with Isomer A will attenuate the selective working memory deficit induced by sub-chronic PCP as measured in the NOR test paradigm.
Rats are allowed to habituate to the empty test box and the behavioural test room environment for 1 hour on day 1. Prior to behavioural testing on day 2 rats are given a further 3 minutes habituation.
Following the 3 minute habituation period, the rats are given two 3 minute trials (T1 and T2) which are separated by a 1 minute inter-trial interval in the home cage during which the objects are changed.
In this trial, the animals are allowed to explore two identical objects (A1 and A2) for 3 minutes.
In this trial, the animals explore a familiar object (A) from T1 and a novel object (B) for 3 minutes. The familiar object presented during T2 is a duplicate of the object presented in T1 in order to avoid any olfactory trails.
The object exploration is defined by animals licking, sniffing or touching the object with the forepaws whilst sniffing, but not leaning against, turning around, standing or sitting on the object. The exploration time (s) of each object (A1, A2, A and B) in each trial are recorded using two stopwatches and the following factors are calculated: • Total exploration time of both objects in the acquisition trial (s). • Total exploration time of both objects in the retention trial (s). • Habituation of exploratory activity. The LMA includes the exploration time, as measured by the number of lines crossed, for both the trials. • Discrimination index, which is calculated as shown below;
(time spent exploring novel object−time spent exploring familiar object)÷total time spent in exploring the objects
Behaviour in all trials was recorded on video for subsequent blind scoring.
50 female hooded-Lister rats (Harlan, UK) were used as subjects for these studies. Rats were housed in groups of 5 under standard laboratory conditions under a 12 hr light:dark cycle, lights on at 0700 hr. All testing was carried out in the light phase. Food and water were freely provided. […]

[3] = molecular target: T2, Serotonin Transporter (SERT) (Homo sapiens, UniProt P31645); experiment: Serotonin transporter radioligand binding ([125I] RTI-55); conditions: for inhibition at 10 µM: read-out: Percentage Inhibition of Specific Binding, SERT
T2 construct: expressed in transfected cells; host or cells: HEK-293 cells
Method: as §1
(i) Serotonin Transporter (SERT):
• Reference: Gu et al., J. Biol. Chem., 269(10):7124-7130, (1994) • Source: Human recombinant HEK-293 cells • Ligand: 0.15 nM [125I] RTI-55 • Vehicle: 1% DMSO • Incubation time/Temp: 3 hours @ 4° C. • Incubation buffer: 100 mM NaCl, 50 mM Tris HCl, 1 μM Leupeptin, 10 μM PMSF, pH 7.4 • Non Specific ligand: 10 μM Imipramine • Kd: 0.17 nM • Bmax: 0.41 pmole/mg protein • Specific binding: 95% • Quantitation method: Radioligand binding • Significance criteria: ≧50% of maximum stimulation or inhibition

T2 sequence (P31645 whole entry): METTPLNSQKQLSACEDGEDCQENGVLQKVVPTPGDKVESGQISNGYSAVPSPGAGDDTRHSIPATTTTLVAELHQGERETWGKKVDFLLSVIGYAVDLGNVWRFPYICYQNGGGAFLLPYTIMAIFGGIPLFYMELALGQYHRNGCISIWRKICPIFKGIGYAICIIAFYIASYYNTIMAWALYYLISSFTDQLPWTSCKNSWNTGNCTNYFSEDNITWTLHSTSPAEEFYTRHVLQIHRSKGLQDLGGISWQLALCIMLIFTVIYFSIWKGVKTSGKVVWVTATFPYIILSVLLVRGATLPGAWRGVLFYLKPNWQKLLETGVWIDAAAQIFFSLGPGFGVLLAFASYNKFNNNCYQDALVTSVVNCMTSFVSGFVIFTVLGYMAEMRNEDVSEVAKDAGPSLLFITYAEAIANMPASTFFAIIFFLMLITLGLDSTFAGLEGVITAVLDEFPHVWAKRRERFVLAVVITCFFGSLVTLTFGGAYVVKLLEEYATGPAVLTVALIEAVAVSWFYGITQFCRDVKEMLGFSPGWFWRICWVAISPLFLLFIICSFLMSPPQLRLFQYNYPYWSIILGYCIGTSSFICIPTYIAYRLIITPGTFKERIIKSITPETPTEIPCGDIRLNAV

COc1cc2c(cc1OC)[C@@H]1C[C@@H](O)[C@H](CC(C)C)CN1CC2 (single isomer, unassigned) [Isomer A]
inhibition at 10 µM [1]: 56% | Sedation (observation of behaviour) ([2]; 30 mg/kg Isomer A p.o., rats in NOR arena): did not appear sedated | Locomotor activity in the test arena (number of lines crossed, T1+T2) ([2]; 30 mg/kg Isomer A p.o., sub-chronic PCP rats, FIG. 4): significant effect to reduce locomotor activity | Attenuation of sub-chronic PCP-induced deficit, retention phase (exploration time of familiar vs novel object) ([2]; Isomer A 3-30 mg/kg p.o. acute, 30 min before test, sub-chronic PCP 2 mg/kg i.p. twice daily 7 days, FIG. 2): has efficacy to attenuate the sub-chronic PCP-induced deficit; also recorded: significant at the highest dose | Exploration of two identical objects in the acquisition phase (T1) ([2]; Isomer A 3-30 mg/kg p.o., sub-chronic PCP rats, FIG. 1): no effect | inhibition at 10 µM ([3]; 10 μM solution): 19%

COc1cc2c(cc1OC)[C@H]1C[C@H](O)[C@@H](CC(C)C)CN1CC2 (single isomer, unassigned) [Isomer B]
inhibition at 10 µM [1]: -6% | inhibition at 10 µM ([3]; 10 μM solution): 86%

COc1cc2c(cc1OC)C1CC(O)C(CC(C)C)CN1CC2 (single isomer, unassigned) [Isomer C]
inhibition at 10 µM [1]: 3% | inhibition at 10 µM ([3]; 10 μM solution): 77% | pIC50 ([3]; value in parentheses, unit inferred): 5.56

COc1cc2c(cc1OC)[C@H]1C[C@@H](O)[C@H](CC(C)C)CN1CC2 (single isomer, unassigned; isomer d) [Isomer D]
Percentage Inhibition of Specific Binding, α2c receptor [1]: 74% | Percentage Inhibition of Specific Binding, SERT ([3]; 10 μM solution): 8%
